In PubChem BioAssay AID248 (DTP/NCI, 2004):
Values joined by “and” are separate entries in the source; they are usually repeats but may differ in a detail not shown here. Identical values can stand only once. Inconclusive results and toxic doses are left out. No stated cut-off is given here; in the data, active means T/C of 150% or more; inactive means T/C below 125%.

Test system: L1210 leukemia ip in BDF1 mice, survival T/C
Test: NCI In Vivo Anticancer Drug Screen. Data for tumor model L1210 Leukemia (intraperitoneal) in B6D2F1 (BDF1) mice
Conditions: endpoint: mean survival time, higher = longer survival
Summary of the method: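 Antitumor effect is assessed in tumor-bearing animals. Survival in the compound arm is compared with a vehicle-dosed control arm and expressed as their quotient.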

[1] = dose: 100.0 mg/kg/injection, schedule: Q04DX002 (ip), vehicle: saline with Tween-80
[2] = dose: 50.0 mg/kg/injection, schedule: Q01DX001 (ip), vehicle: saline
[3] = dose: 100.0 mg/kg/injection, schedule: Q01DX001 (ip), vehicle: saline
[4] = dose: 200.0 mg/kg/injection, schedule: Q01DX001 (ip), vehicle: carboxymethylcellulose (CMC)
[5] = dose: 200.0 mg/kg/injection, schedule: Q01DX001 (ip), vehicle: saline
[6] = dose: 100.0 mg/kg/injection, schedule: Q04DX003 (ip), vehicle: Klucel (hydroxypropylcellulose) (HPC)
[7] = dose: 200.0 mg/kg/injection, schedule: Q04DX003 (ip), vehicle: Klucel (hydroxypropylcellulose) (HPC)
[8] = dose: 100.0 mg/kg/injection, schedule: Q01DX009 (ip), vehicle: Klucel (hydroxypropylcellulose) (HPC)
[9] = dose: 200.0 mg/kg/injection, schedule: Q01DX009 (ip), vehicle: Klucel (hydroxypropylcellulose) (HPC)
[10] = dose: 400.0 mg/kg/injection, schedule: Q01DX009 (ip), vehicle: Klucel (hydroxypropylcellulose) (HPC)

Measured: T/C

CP(=O)(CCP(=O)(c1ccccc1)c1ccccc1)c1ccccc1 (stereo unspecified)
inactive: dose: 25.0 mg/kg/injection, schedule: Q04DX002 (ip), vehicle: saline with Tween-80 94 % of control | dose: 50.0 mg/kg/injection, schedule: Q04DX002 (ip), vehicle: saline with Tween-80 106 % of control | [1] 97 % of control

CC1(C)N=C(N)N=C(N)N1c1cccc(CCCCc2ccc(Cl)c(S(=O)(=O)F)c2)c1
inactive: dose: 7.0 mg/kg/injection, schedule: Q04DX003 (ip), vehicle: saline 97 % of control | dose: 12.5 mg/kg/injection, schedule: Q01DX009 (ip), vehicle: saline sonified 91 % of control | dose: 12.5 mg/kg/injection, schedule: Q04DX003 (ip), vehicle: saline sonified 100 % of control | dose: 14.0 mg/kg/injection, schedule: Q04DX003 (ip), vehicle: saline 95 % of control | dose: 25.0 mg/kg/injection, schedule: Q04DX003 (ip), vehicle: saline sonified 102 % of control | dose: 28.0 mg/kg/injection, schedule: Q04DX003 (ip), vehicle: saline 88 % of control | dose: 50.0 mg/kg/injection, schedule: Q04DX003 (ip), vehicle: saline sonified 96 % of control | dose: 56.0 mg/kg/injection, schedule: Q04DX003 (ip), vehicle: saline 93 % of control

CS(=O)(=O)c1nc(N)nc2nc[nH]c12
inactive: dose: 7.5 mg/kg/injection, schedule: Q01DX Z (ip), vehicle: methylcellulose (MC) 95 % of control | dose: 10.0 mg/kg/injection, schedule: Q01DX001 (ip), vehicle: carboxymethylcellulose (CMC) 101 % of control | dose: 12.5 mg/kg/injection, schedule: Q01DX009 (ip), vehicle: saline 109 % of control | dose: 15.0 mg/kg/injection, schedule: Q01DX Z (ip), vehicle: methylcellulose (MC) 115 % of control | dose: 25.0 mg/kg/injection, schedule: Q01DX009 (ip), vehicle: saline 100 % of control | dose: 30.0 mg/kg/injection, schedule: Q01DX Z (ip), vehicle: methylcellulose (MC) 117 % of control | [2] 95 % of control | dose: 50.0 mg/kg/injection, schedule: Q01DX009 (ip), vehicle: saline 102 % of control | dose: 50.0 mg/kg/injection, schedule: Q04DX003 (ip), vehicle: saline 98 % of control | dose: 60.0 mg/kg/injection, schedule: Q01DX Z (ip), vehicle: carboxymethylcellulose (CMC) 119 % of control | dose: 60.0 mg/kg/injection, schedule: Q01DX Z (ip), vehicle: methylcellulose (MC) 123 % of control | dose: 75.0 mg/kg/injection, schedule: Q01DX Z (ip), vehicle: methylcellulose (MC) 120 % of control | [3] 101 % of control | dose: 100.0 mg/kg/injection, schedule: Q01DX009 (ip), vehicle: saline 97 % of control | dose: 100.0 mg/kg/injection, schedule: Q04DX003 (ip), vehicle: saline 93 % of control | [4] 100 % of control | [5] 117 % of control | dose: 200.0 mg/kg/injection, schedule: Q01DX009 (ip), vehicle: saline 103 % of control | dose: 200.0 mg/kg/injection, schedule: Q04DX003 (ip), vehicle: saline 98 % of control

CN(C)CCC(O)(c1ccccc1)c1ccccc1Cl (stereo unspecified)
inactive: dose: 100.0 mg/kg/injection, schedule: Q01DX001 (ip), vehicle: carboxymethylcellulose (CMC) 90 % of control | [4] 97 % of control | dose: 400.0 mg/kg/injection, schedule: Q01DX001 (ip), vehicle: carboxymethylcellulose (CMC) 94 % of control

CCC1CCC(Cc2ccncc2)CC1 (stereo unspecified)
inactive: [6] 98 % of control | [7] 92 % of control

COc1cc(/C=C(/C)[N+](=O)[O-])ccc1O
inactive: dose: 6.0 mg/kg/injection, schedule: Q01DX009 (ip), vehicle: carboxymethylcellulose (CMC) 112 % of control | dose: 12.0 mg/kg/injection, schedule: Q01DX009 (ip), vehicle: carboxymethylcellulose (CMC) 92 % of control | dose: 25.0 mg/kg/injection, schedule: Q01DX009 (ip), vehicle: Klucel (hydroxypropylcellulose) (HPC) 112 % of control | dose: 25.0 mg/kg/injection, schedule: Q01DX009 (ip), vehicle: carboxymethylcellulose (CMC) 105 % of control | dose: 50.0 mg/kg/injection, schedule: Q01DX009 (ip), vehicle: Klucel (hydroxypropylcellulose) (HPC) 100 % of control | dose: 50.0 mg/kg/injection, schedule: Q01DX009 (ip), vehicle: carboxymethylcellulose (CMC) 100 % of control and 103 % of control | dose: 50.0 mg/kg/injection, schedule: Q04DX003 (ip), vehicle: Klucel (hydroxypropylcellulose) (HPC) 97 % of control | [8] 109 % of control | [6] 105 % of control | [9] 103 % of control | [7] 103 % of control

O=C1C=CC(=O)N1c1ccc2c(c1)Cc1ccccc1-2
inactive: dose: 50.0 mg/kg/injection, schedule: Q04DX003 (ip), vehicle: saline with Tween-80 98 % of control | dose: 100.0 mg/kg/injection, schedule: Q04DX003 (ip), vehicle: saline with Tween-80 108 % of control and 115 % of control | dose: 200.0 mg/kg/injection, schedule: Q04DX003 (ip), vehicle: saline with Tween-80 87 % of control

Cc1ccc(S(=O)(=O)N2CCC(O)(c3ccccc3)CC2)cc1
inactive: [8] 91 % of control | [6] 90 % of control | [9] 90 % of control | [7] 91 % of control | [10] 92 % of control | dose: 400.0 mg/kg/injection, schedule: Q04DX003 (ip), vehicle: Klucel (hydroxypropylcellulose) (HPC) 89 % of control

COc1ccccc1-n1c(=O)c(N=Nc2ccc(Cl)cc2)c(O)n(-c2ccccc2C)c1=S
inactive: dose: 75.0 mg/kg/injection, schedule: Q04DX003 (ip), vehicle: Klucel (hydroxypropylcellulose) (HPC) 94 % of control | dose: 150.0 mg/kg/injection, schedule: Q04DX003 (ip), vehicle: Klucel (hydroxypropylcellulose) (HPC) 107 % of control | dose: 300.0 mg/kg/injection, schedule: Q04DX003 (ip), vehicle: Klucel (hydroxypropylcellulose) (HPC) 104 % of control

CN1COc2c(n(C)c(=O)[nH]c2=O)C1
inactive: [2] 97 % of control | [3] 103 % of control | [5] 89 % of control | dose: 400.0 mg/kg/injection, schedule: Q01DX001 (ip), vehicle: saline 101 % of control

CCCCCCCCCCCC(=O)NC(=S)Nc1ccccc1C(=O)OC
inactive: dose: 25.0 mg/kg/injection, schedule: Q01DX009 (ip), vehicle: saline with Tween-80 93 % of control | dose: 50.0 mg/kg/injection, schedule: Q01DX009 (ip), vehicle: saline with Tween-80 93 % of control | dose: 100.0 mg/kg/injection, schedule: Q01DX009 (ip), vehicle: saline with Tween-80 96 % of control and 92 % of control | [1] 102 % of control and 109 % of control | dose: 200.0 mg/kg/injection, schedule: Q01DX009 (ip), vehicle: saline with Tween-80 104 % of control and 86 % of control and 90 % of control | dose: 200.0 mg/kg/injection, schedule: Q04DX002 (ip), vehicle: saline with Tween-80 105 % of control and 89 % of control | dose: 400.0 mg/kg/injection, schedule: Q01DX009 (ip), vehicle: saline with Tween-80 94 % of control and 108 % of control | dose: 400.0 mg/kg/injection, schedule: Q04DX002 (ip), vehicle: saline with Tween-80 94 % of control and 88 % of control

O=C1c2ccccc2-c2cccc3ccc(Cc4ccccc4)c1c23
inactive: dose: 100.0 mg/kg/injection, schedule: Q01DX001 (ip), vehicle: saline with Tween-80 88 % of control | dose: 200.0 mg/kg/injection, schedule: Q01DX001 (ip), vehicle: saline with Tween-80 92 % of control

CCOc1ccc(Cl)cc1Cl
inactive: dose: 100.0 mg/kg/injection, schedule: Q04DX002 (ip), vehicle: saline 109 % of control | dose: 200.0 mg/kg/injection, schedule: Q04DX002 (ip), vehicle: saline 113 % of control | dose: 400.0 mg/kg/injection, schedule: Q04DX002 (ip), vehicle: saline 106 % of control

NC(=O)OCC(CO)(c1ccccc1)c1ccccc1
inactive: dose: 5.0 mg/kg/injection, schedule: Q01DX001 (ip), vehicle: saline 98 % of control | dose: 10.0 mg/kg/injection, schedule: Q01DX001 (ip), vehicle: saline 93 % of control | dose: 20.0 mg/kg/injection, schedule: Q01DX001 (ip), vehicle: saline 102 % of control | dose: 40.0 mg/kg/injection, schedule: Q01DX001 (ip), vehicle: saline 102 % of control | dose: 80.0 mg/kg/injection, schedule: Q01DX001 (ip), vehicle: saline 98 % of control

NC(=O)CNC(=O)CN1C(=O)c2ccccc2C1=O
inactive: dose: 100.0 mg/kg/injection, schedule: Q01DX001 (ip), vehicle: other 103 % of control | dose: 200.0 mg/kg/injection, schedule: Q01DX001 (ip), vehicle: other 103 % of control | dose: 400.0 mg/kg/injection, schedule: Q01DX001 (ip), vehicle: other 103 % of control

C/C(=N/N(C)C)c1ccccc1O
inactive: [8] 103 % of control | [9] 106 % of control | [10] 92 % of control
